Assay results published in the CheMixHub viscosity set.
± gives the uncertainty stated by the source.

Assay: xn = mol fraction of the nth substance listed

CCOC(C)=O + CN1CCCC1=O
viscosity [mPa·s], 101 kPa
Conditions | x2 = 0.1022 | x2 = 0.2038 | x2 = 0.305 | x2 = 0.4057 | x2 = 0.506 | x2 = 0.6057 | x2 = 0.705 | x2 = 0.8038 | x2 = 0.9021
303.15 K | 0.556 ± 0.012 | 0.725 ± 0.015 | 0.879 ± 0.018 | 1.023 ± 0.021 | 1.154 ± 0.024 | 1.271 ± 0.026 | 1.369 ± 0.028 | 1.449 ± 0.03 | 1.511 ± 0.031
308.15 K | 0.523 ± 0.011 | 0.669 ± 0.014 | 0.804 ± 0.017 | 0.928 ± 0.019 | 1.042 ± 0.022 | 1.147 ± 0.024 | 1.235 ± 0.026 | 1.307 ± 0.027 | 1.365 ± 0.028
313.15 K | 0.492 ± 0.01 | 0.628 ± 0.013 | 0.753 ± 0.016 | 0.869 ± 0.018 | 0.975 ± 0.02 | 1.07 ± 0.022 | 1.153 ± 0.024 | 1.221 ± 0.025 | 1.274 ± 0.026
318.15 K | 0.462 ± 0.01 | 0.582 ± 0.012 | 0.695 ± 0.015 | 0.798 ± 0.017 | 0.893 ± 0.019 | 0.976 ± 0.02 | 1.051 ± 0.022 | 1.114 ± 0.023 | 1.165 ± 0.024

OCC(O)CO + CCO
298.15 K, 101 kPa
Conditions | viscosity [mPa·s]
x1 = 0.053 | 1.52 ± 0.02
x1 = 0.11 | 2.23 ± 0.03
x1 = 0.18 | 3.49 ± 0.05
x1 = 0.25 | 5.83 ± 0.08
x1 = 0.33 | 10.4 ± 0.16
x1 = 0.43 | 20.6 ± 0.36
x1 = 0.54 | 45.3 ± 1
x1 = 0.67 | 103.3 ± 3.6
x1 = 0.82 | 254 ± 15

COc1ccc(C=O)cc1 + CCOCCO
viscosity [mPa·s], 101 kPa
Conditions | x1 = 0.0825 | x1 = 0.1683 | x1 = 0.2576 | x1 = 0.3506 | x1 = 0.4474 | x1 = 0.5484 | x1 = 0.6539 | x1 = 0.7641 | x1 = 0.8793
303.15 K | 1.521 ± 0.15 | 1.534 ± 0.15 | 1.586 ± 0.16 | 1.682 ± 0.17 | 1.828 ± 0.18 | 2.03 ± 0.2 | 2.294 ± 0.23 | 2.629 ± 0.26 | 3.044 ± 0.3
308.15 K | 1.459 ± 0.15 | 1.483 ± 0.15 | 1.535 ± 0.15 | 1.618 ± 0.16 | 1.735 ± 0.17 | 1.891 ± 0.19 | 2.09 ± 0.21 | 2.338 ± 0.23 | 2.641 ± 0.26
313.15 K | 1.33 ± 0.13 | 1.371 ± 0.14 | 1.431 ± 0.14 | 1.512 ± 0.15 | 1.617 ± 0.16 | 1.749 ± 0.18 | 1.912 ± 0.19 | 2.108 ± 0.21 | 2.342 ± 0.23
318.15 K | 1.251 ± 0.13 | 1.294 ± 0.13 | 1.351 ± 0.14 | 1.423 ± 0.14 | 1.513 ± 0.15 | 1.623 ± 0.16 | 1.755 ± 0.18 | 1.911 ± 0.19 | 2.096 ± 0.21

CC(C)(C)N1CCCC1=O + O
298.16 K, 101 kPa
Conditions | viscosity [mPa·s]
x1 = 0.1105 | 3.47 ± 0.03
x1 = 0.261 | 4.04 ± 0.03
x1 = 0.4035 | 4.76 ± 0.04
x1 = 0.5487 | 5.49 ± 0.04
x1 = 0.6233 | 5.79 ± 0.04
x1 = 0.6749 | 5.86 ± 0.04
x1 = 0.7189 | 5.81 ± 0.05
x1 = 0.7798 | 5.44 ± 0.05
x1 = 0.8652 | 4.22 ± 0.04

CCOC(C)=O + c1ccccc1
Conditions | viscosity [mPa·s]
298 K, 101.3 kPa, x2 = 0.1715 | 0.478 ± 0.048
298 K, 101.3 kPa, x2 = 0.3251 | 0.489 ± 0.049
298 K, 101.3 kPa, x2 = 0.5324 | 0.507 ± 0.051
298 K, 101.3 kPa, x2 = 0.6702 | 0.534 ± 0.054
298 K, 101.3 kPa, x2 = 0.8535 | 0.57 ± 0.057
298.15 K, 101 kPa, x1 = 0.0447 | 0.588 ± 0.005
298.15 K, 101 kPa, x1 = 0.1505 | 0.556 ± 0.005
298.15 K, 101 kPa, x1 = 0.2473 | 0.5181 ± 0.0041
298.15 K, 101 kPa, x1 = 0.2482 | 0.531 ± 0.005
298.15 K, 101 kPa, x1 = 0.3049 | 0.499 ± 0.004
298.15 K, 101 kPa, x1 = 0.3312 | 0.499 ± 0.004
298.15 K, 101 kPa, x1 = 0.351 | 0.507 ± 0.004
298.15 K, 101 kPa, x1 = 0.4099 | 0.483 ± 0.004
298.15 K, 101 kPa, x1 = 0.4481 | 0.489 ± 0.004
298.15 K, 101 kPa, x1 = 0.453 | 0.4803 ± 0.004
298.15 K, 101 kPa, x1 = 0.461 | 0.4782 ± 0.004
298.15 K, 101 kPa, x1 = 0.4981 | 0.48 ± 0.004
298.15 K, 101 kPa, x1 = 0.5495 | 0.472 ± 0.004
298.15 K, 101 kPa, x1 = 0.6517 | 0.458 ± 0.004
298.15 K, 101 kPa, x1 = 0.7368 | 0.4446 ± 0.0039
298.15 K, 101 kPa, x1 = 0.7524 | 0.446 ± 0.004
298.15 K, 101 kPa, x1 = 0.8551 | 0.437 ± 0.004
298.15 K, 101 kPa, x1 = 0.9445 | 0.431 ± 0.004
298.15 K, 101 kPa, x2 = 0.1725 | 0.442 ± 0.006
298.15 K, 101 kPa, x2 = 0.5441 | 0.487 ± 0.007
298.15 K, 101 kPa, x2 = 0.826 | 0.551 ± 0.007
308.15 K, 101 kPa, x1 = 0.0447 | 0.515 ± 0.004
308.15 K, 101 kPa, x1 = 0.1505 | 0.492 ± 0.004
308.15 K, 101 kPa, x1 = 0.2482 | 0.472 ± 0.004
308.15 K, 101 kPa, x1 = 0.351 | 0.455 ± 0.004
308.15 K, 101 kPa, x1 = 0.4481 | 0.44 ± 0.004
308.15 K, 101 kPa, x1 = 0.4981 | 0.433 ± 0.004
308.15 K, 101 kPa, x1 = 0.5495 | 0.426 ± 0.004
308.15 K, 101 kPa, x1 = 0.6517 | 0.415 ± 0.004
308.15 K, 101 kPa, x1 = 0.7524 | 0.405 ± 0.004
308.15 K, 101 kPa, x1 = 0.8551 | 0.396 ± 0.004
308.15 K, 101 kPa, x1 = 0.9445 | 0.39 ± 0.004
318 K, 101.3 kPa, x2 = 0.1624 | 0.3894 ± 0.016
318 K, 101.3 kPa, x2 = 0.3233 | 0.3971 ± 0.016
318 K, 101.3 kPa, x2 = 0.5251 | 0.4129 ± 0.017
318 K, 101.3 kPa, x2 = 0.671 | 0.4287 ± 0.017
318 K, 101.3 kPa, x2 = 0.8633 | 0.4505 ± 0.018

Clc1cccc(Cl)c1 + Nc1cccc(Cl)c1
viscosity [mPa·s], 100 kPa
Conditions | x2 = 0.1079 | x2 = 0.2255 | x2 = 0.3102 | x2 = 0.4128 | x2 = 0.5135 | x2 = 0.6122 | x2 = 0.7094 | x2 = 0.8047 | x2 = 0.8908
303.15 K | 1.313 ± 0.011 | 1.712 ± 0.013 | 1.998 ± 0.015 | 2.341 ± 0.017 | 2.675 ± 0.019 | 2.999 ± 0.021 | 3.318 ± 0.024 | 3.627 ± 0.026 | 3.905 ± 0.028
308.15 K | 1.225 ± 0.01 | 1.581 ± 0.012 | 1.836 ± 0.014 | 2.142 ± 0.016 | 2.439 ± 0.018 | 2.729 ± 0.02 | 3.012 ± 0.022 | 3.286 ± 0.024 | 3.532 ± 0.026
313.15 K | 1.141 ± 0.01 | 1.455 ± 0.012 | 1.678 ± 0.013 | 1.946 ± 0.015 | 2.208 ± 0.017 | 2.462 ± 0.019 | 2.708 ± 0.021 | 2.946 ± 0.023 | 3.162 ± 0.024
318.15 K | 1.055 ± 0.01 | 1.326 ± 0.011 | 1.519 ± 0.013 | 1.752 ± 0.014 | 1.975 ± 0.016 | 2.193 ± 0.018 | 2.405 ± 0.019 | 2.611 ± 0.021 | 2.795 ± 0.023

COc1ccc(C=O)cc1 + Cc1ccccc1
viscosity [mPa·s], 101 kPa
Conditions | x1 = 0.0899 | x1 = 0.1818 | x1 = 0.2759 | x1 = 0.3721 | x1 = 0.4706 | x1 = 0.5714 | x1 = 0.6747 | x1 = 0.7805 | x1 = 0.8889
303.15 K | 0.5703 ± 0.16 | 0.6449 ± 0.18 | 0.7185 ± 0.19 | 0.9019 ± 0.23 | 1.099 ± 0.28 | 1.356 ± 0.33 | 1.551 ± 0.38 | 2.61 ± 0.61 | 2.857 ± 0.66
308.15 K | 0.5414 ± 0.15 | 0.6128 ± 0.17 | 0.6929 ± 0.19 | 0.8502 ± 0.22 | 1.018 ± 0.26 | 1.258 ± 0.31 | 1.388 ± 0.34 | 2.218 ± 0.52 | 2.505 ± 0.59
313.15 K | 0.512 ± 0.15 | 0.5751 ± 0.16 | 0.6448 ± 0.18 | 0.7809 ± 0.21 | 0.9332 ± 0.24 | 1.122 ± 0.28 | 1.259 ± 0.31 | 2.011 ± 0.48 | 2.165 ± 0.51
318.15 K | 0.4586 ± 0.13 | 0.5216 ± 0.15 | 0.5862 ± 0.16 | 0.7004 ± 0.19 | 0.8327 ± 0.22 | 0.9898 ± 0.25 | 1.098 ± 0.28 | 1.65 ± 0.4 | 1.825 ± 0.44

CCOc1ccccc1 + CN(C)C=O
viscosity [mPa·s], 101.33 kPa
Conditions | x1 = 0.031 | x1 = 0.091 | x1 = 0.153 | x1 = 0.223 | x1 = 0.304 | x1 = 0.463 | x1 = 0.556 | x1 = 0.642 | x1 = 0.8
298 K | 0.815 ± 0.017 | 0.839 ± 0.018 | 0.862 ± 0.018 | 0.889 ± 0.019 | 0.919 ± 0.02 | 0.978 ± 0.021 | 1.012 ± 0.022 | 1.042 ± 0.022 | 1.097 ± 0.024
303 K | 0.769 ± 0.017 | 0.788 ± 0.017 | 0.808 ± 0.017 | 0.831 ± 0.018 | 0.857 ± 0.018 | 0.907 ± 0.019 | 0.936 ± 0.02 | 0.963 ± 0.021 | 1.01 ± 0.022
308 K | 0.73 ± 0.016 | 0.747 ± 0.016 | 0.763 ± 0.016 | 0.783 ± 0.017 | 0.804 ± 0.017 | 0.847 ± 0.018 | 0.871 ± 0.019 | 0.893 ± 0.019 | 0.933 ± 0.02

CCCCCCCCn1cc[n+](C)c1.[Cl-] + CCCO
viscosity [mPa·s], 101 kPa
Conditions | x2 = 0.1071 | x2 = 0.2407 | x2 = 0.3036 | x2 = 0.4887
298.15 K | 7238 ± 3100 | – | 912 ± 230 | 178.5 ± 20
313.15 K | – | 649 ± 150 | 334.5 ± 56 | –
